Source: article PMC9650428, “Mutagenesis and functional analysis of SotB: A multidrug transporter of the major facilitator superfamily from Escherichia coli” (Frontiers in Microbiology, 2022)
Positions count from the first letter of the chain named.

Legend:
[1] = tested on: sotB-deletion E. coli MG1655 strain; assay: Growth curve (L-arabinose inhibition) assay, sotB-deletion MG1655; format: cell-based, Escherichia coli
Source text: In the process of sotB gene knockout, two plasmids were introduced into E. coli MG1655 strain: the plasmid pEcCas expressing Cas9 protein (kanamycin resistance) and the plasmid pEcgRNA/sotB expressing related gRNA (spectinomycin resistance). The pEcCas plasmid was successfully eliminated in this study. […] Thus, the sotB-deletion strain has resistance to spectinomycin. In order to carry out the related L-arabinose inhibition assay more strictly, the same plasmid (pEcgRNA/sotB) was then transformed into intact E. coli MG1655 cells, and the growth conditions of the two strains were measured as follows: The E. coli MG1655 cells (intact cells and sotB-deletion cells) were grown in liquid LB medium containing spectinomycin (50 μg/ml) at 37°C for overnight. The cells were then diluted to an OD600 value of 0.8 with liquid LB medium containing spectinomycin (50 μg/ml). Then, the cells were further diluted 1,000 times with liquid LB medium containing spectinomycin (50 μg/ml). The diluted cells were added to a 96-well plate (200 μl/well). Then, L-arabinose was added with final concentrations of 0 μM, 10 μM, 100 μM, 1 mM, 10 mM, and 100 mM, respectively. The 96-well plate was incubated at 37°C, and the OD600 value was measured every 1 h with a microplate reader. […]

[2] = tested on: intact E. coli MG1655 strain; assay: Growth curve (L-arabinose inhibition / D-xylose competition) assay, intact MG1655; format: cell-based, Escherichia coli
Source text: In the process of sotB gene knockout, two plasmids were introduced into E. coli MG1655 strain: the plasmid pEcCas expressing Cas9 protein (kanamycin resistance) and the plasmid pEcgRNA/sotB expressing related gRNA (spectinomycin resistance). The pEcCas plasmid was successfully eliminated in this study. […] Thus, the sotB-deletion strain has resistance to spectinomycin. In order to carry out the related L-arabinose inhibition assay more strictly, the same plasmid (pEcgRNA/sotB) was then transformed into intact E. coli MG1655 cells, and the growth conditions of the two strains were measured as follows: The E. coli MG1655 cells (intact cells and sotB-deletion cells) were grown in liquid LB medium containing spectinomycin (50 μg/ml) at 37°C for overnight. The cells were then diluted to an OD600 value of 0.8 with liquid LB medium containing spectinomycin (50 μg/ml). Then, the cells were further diluted 1,000 times with liquid LB medium containing spectinomycin (50 μg/ml). The diluted cells were added to a 96-well plate (200 μl/well). Then, L-arabinose was added with final concentrations of 0 μM, 10 μM, 100 μM, 1 mM, 10 mM, and 100 mM, respectively. The 96-well plate was incubated at 37°C, and the OD600 value was measured every 1 h with a microplate reader. For the competition assay, the intact MG1655 cells diluted 1,000 times were divided into two parts and then added into 96-well plate (200 μl/well). One part was directly added with D-xylose at a final concentration of 0, 1, and 10 mM, respectively; the other part was first added with L-arabinose at a final concentration of 10 mM, then D-xylose was added with final concentrations of 0, 1, and 10 mM, respectively. The method of growth curve measurement is the same as above. All the experiments were repeated at least three times.

SotB S339A = molecular target: T1, SotB S339A (Escherichia coli, UniProt P31122, S339A); assay: SPR affinity assay, SotB variant S339A; details: read-out: KD, binding affinity with S339A
T1 construct: The full-length sotB and lapC genes from the E. coli MG1655 genome were subcloned into the cloning vector pET28a; 8xHis (C); made in house; host or cells: E. coli C43(DE3)
T1 sequence (P31122 1-396 S339A): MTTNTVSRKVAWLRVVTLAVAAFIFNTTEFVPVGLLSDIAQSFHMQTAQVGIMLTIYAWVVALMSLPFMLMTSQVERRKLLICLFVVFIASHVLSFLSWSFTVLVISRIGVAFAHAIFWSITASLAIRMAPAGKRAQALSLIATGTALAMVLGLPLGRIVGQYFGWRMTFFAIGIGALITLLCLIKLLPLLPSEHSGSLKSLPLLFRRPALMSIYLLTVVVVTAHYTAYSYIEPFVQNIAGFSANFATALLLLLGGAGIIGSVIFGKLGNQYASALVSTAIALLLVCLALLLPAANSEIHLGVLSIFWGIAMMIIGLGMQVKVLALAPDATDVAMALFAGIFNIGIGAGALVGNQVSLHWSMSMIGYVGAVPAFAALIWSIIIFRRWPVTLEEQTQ
Procedure: The instrument used in surface plasmon resonance (SPR) affinity assays was OpenSPR (Nicoya, Canada) and the chip used was COOH sensor chip (Nicoya, Canada). SotB and its variants were as ligands. IPTG, L-arabinose, D-xylose, D-glucose, D-fructose, and D-mannose were as small molecules. Using HSB-EP buffer (10 mM HEPES, 150 mM NaCl, 3 mM EDTA, 0.005% Tween-20, pH7.4) as test buffer and setting flow rate 150 μl/min after installed COOH chip according to OpenSPRTM instrument standard operating procedure. After the signal baseline was reached, loading 200 μl 80% isopropyl alcohol and ran for 10 s to drain bubbles. After reaching baseline, the sample ring was rinsed with HSB-EP buffer and emptied with air. After the signal reached the baseline, loading 200 μl EDC (400 mM, Sigma)/NHS (100 mM, Sigma; 1:1) solution with a flow rate 20 μl/min for 4 min. Then, loading 200 μl ligand (SotB/SotB variants) diluted by the activation buffer (sodium acetate, 10 mM, pH3.5) and ran for 4 min (20 μl/min). Then the sample ring was rinsed with HSB-EP buffer and emptied with air. Loading 200 μl 1 M ethanolamine (Sigma) blocking solution (20 μl/min, 4 min), rinsed the sample ring with HSB-EP buffer, and emptied the sample ring with air. Observing baseline for 5 min to ensure stability. […]

SotB H115A = molecular target: T2, SotB H115A (Escherichia coli, UniProt P31122, H115A); assay: SPR affinity assay, SotB variant H115A; format: binding
T2 construct: The full-length sotB and lapC genes from the E. coli MG1655 genome were subcloned into the cloning vector pET28a; 8xHis (C); made in house; host or cells: E. coli C43(DE3)
T2 sequence (P31122 1-396 H115A): T1 sequence (P31122 1-396 S339A) with H115A, A339S
Procedure: The instrument used in surface plasmon resonance (SPR) affinity assays was OpenSPR (Nicoya, Canada) and the chip used was COOH sensor chip (Nicoya, Canada). SotB and its variants were as ligands. IPTG, L-arabinose, D-xylose, D-glucose, D-fructose, and D-mannose were as small molecules. Using HSB-EP buffer (10 mM HEPES, 150 mM NaCl, 3 mM EDTA, 0.005% Tween-20, pH7.4) as test buffer and setting flow rate 150 μl/min after installed COOH chip according to OpenSPRTM instrument standard operating procedure. After the signal baseline was reached, loading 200 μl 80% isopropyl alcohol and ran for 10 s to drain bubbles. After reaching baseline, the sample ring was rinsed with HSB-EP buffer and emptied with air. After the signal reached the baseline, loading 200 μl EDC (400 mM, Sigma)/NHS (100 mM, Sigma; 1:1) solution with a flow rate 20 μl/min for 4 min. Then, loading 200 μl ligand (SotB/SotB variants) diluted by the activation buffer (sodium acetate, 10 mM, pH3.5) and ran for 4 min (20 μl/min). Then the sample ring was rinsed with HSB-EP buffer and emptied with air. Loading 200 μl 1 M ethanolamine (Sigma) blocking solution (20 μl/min, 4 min), rinsed the sample ring with HSB-EP buffer, and emptied the sample ring with air. Observing baseline for 5 min to ensure stability. The small molecules were diluted with PBS buffer (2 mM of KH2PO4, 10 mM of Na2HPO4, 2.7 mM of KCl, and 137 mM of NaCl at pH 7.4), and the concentration was shown in the experimental results. The flow rate for small molecules was performed at 20 μl/min. The binding time of small molecule and ligand was 240 s, and the dissociation was 240 s. The analysis software used for the experimental results was TraceDrawer, and the analysis method was one-to-one analysis model.

With `OC1OC[C@H](O)[C@H](O)[C@H]1O` (mixture of isomers) [L-arabinose] the “Effect on growth (OD600 growth curve)” value ([1]; sotB-deletion MG1655, 10 mM final concentration) was “significantly inhibit”, the “Effect on growth (OD600 growth curve)” value ([1]; sotB-deletion MG1655, 100 mM final concentration) was “significantly inhibit” and the “Growth of intact MG1655 compared to sotB-deletion MG1655” value ([2]; in the presence of 1 mM L-arabinose) was “grew better”. The “Effect on growth (OD600 growth curve)” value ([2]; intact MG1655, 10 mM final concentration) was “significantly inhibit”, the “Effect on growth (OD600 growth curve)” value ([2]; intact MG1655, 100 mM final concentration) was “significantly inhibit” and the Kd (SotB S339A) was 3.5 mM. The “Binding affinity of H115A, fold lower than the wild-type protein” value (SotB H115A; H115A vs wild-type SotB) was 3.2 fold and the Kd (SotB H115A; SotB variant H115A, read-out: KD, binding affinity with H115A) was 13.3 mM.
